Data from article PMC6145916, “Interaction of mitochondrial fission factor with dynamin related protein 1 governs physiological mitochondrial function in vivo” (Scientific Reports, 2018).
Where no end group is shown, it is not given here.

Tests used:
[1] = system: wild-type MEFs; experiment: Mitochondrial membrane potential (TMRM), WT MEFs; assay type: cell-based, mouse; details: 20 µM P259 overnight, vs no peptide; 3 independent experiments, three technical replicates; ** p <0.01
Description: Data are of 3 independent experiments with the whiskers calculated by the Turkey method. e. […]
determined by an unpaired, two -tailed t test). g. […]
control (no peptide treatment). Data are mean ± s.e. from 3 independent experiments. […]
(§1) and without phenol red. […] After incubation
(§2) HEPES, and without phenol red. […]
epifluorescence microscope with a 10X objective (Keyence). The Cy5 filter (Keyence) was used to autofocus on the mitochondria plane. […]
Mitochondrial membrane potential determination
After treatment, cells were washed with
Cells were incubated in a 37
°C incubator for 30 minutes. […]

[2] = system: fission and fusion proteins; experiment: Expression of fission and fusion proteins, mitochondrial content and mitophagy in brain of wild-type mice; assay type: in vivo, mouse; details: 3 mg/Kg/day, subcutaneous osmotic pump, 8 weeks, WT mice
Description: Five-week old R6/2 HD mice and their wild-type littermates (a total of 60 mice) were implanted subcutaneously with a 28-d Alzet osmotic pump with either P259-TAT or TAT control peptide (15 mice per group) to be delivered continuously at a rate of 3 mg/Kg/day, as previously described. All mice were implanted twice for a total of an 8-week treatment. 20 of the WT mice were implanted 3 times for a total of a 12-week treatment at 3 mg/Kg/day. All the experiments were in accordance with protocols approved by the Institutional Animal Care and Use Committee of Stanford University and were performed based on the National Institutes of Health Guide for the Care and Use of Laboratory Animals. All methods were carried out in accordance with the relevant guidelines and regulations. […]
membrane in brains of wild-type mice, while not affecting expression levels of other fission and fusion machinery proteins. Total lysate (a,c) and mitochondrial fraction (b) from brain […]
Represented western blots are cropped from full blots shown in the Expanded Western Blots section of the Supplementary Information. […]
Supplementary Figure 4. Principal component analysis of behaviors from wild-type mice treated with P259. a. The top 20% of behaviors collected from wild-type mice treated with 3 […]
ANOVA F- and mutual information scores for each behavior (week designation corresponds to mouse age when the behavior was observed). b. The eigenvector of the first principal component, representing 42% of the variation of the data. […]
finally washed three times with RIPA buffer. Finally, beads were resuspended in 20 µL of Laemmli […]
The effect of peptides on GTPase activity of Drp1 was measured by incubating recombinant Drp1 […]
for 1 hour at 37 °C. GTPase activity was measured using a colorimetric GTPase assay kit (Novus Biologicals, CO, USA) as instructed by the manufacturer. […]

[3] = system: primary cortical neurons; experiment: Mitochondrial ROS (MitoSox Red), primary cortical neurons; assay type: cell-based, rat; details: overnight treatment; n = 3, with 3 replicates
Description: Bottom, quantification of the form factor (degree of branching) and aspect ratio (major/minor axis length). At least 10,000 mitochondrial fragments were analyzed for each condition. Mitochondrial reactive oxygen species production (MitoSox Red) (b) and membrane potential (TMRM) (c) after overnight treatment with indicated concentrations of peptide (n = 3, with 3 replicates). […] Overlay of live microscopy imaging at time 0 (green) and 150 (red) seconds. […] An estimation of the % mobile mitochondria from the Pearson coefficient of each set of images. Data are mean ± s.e.
Following treatment, cells were washed with treatment media.
The Cy5 filter was used to autofocus on the mitochondria plane. Nuclei were imaged with a DAPI filter and the mitoROS (MitoSox) or membrane potential (TMRM) image was acquired with a TRITC filter. […] MitoROS was calculated as the average MitoSox signal per cell. The mitochondrial membrane potential was calculated as the average TMRM signal in the mitochondrial mask.
Mitochondrial reactive oxygen species determination […]
and 1% penicillin-streptomycin solution (Corning, NY, USA). Primary cortical neurons were treated with increasing concentrations of peptides in NbActiv1 media. HD Patient- and adult- […]
as §1, §2
calculated as the average MitoSox signal per cell. […]

YGRKKRRQRRRGSGIIQLPEIVVV-NH2 (C-terminus assumed) [P259]
mitochondrial membrane potential, WT MEFs [1]: decreases
expression levels of both fission and fusion proteins [2]: no effect
mitophagy [2]: no effect
overall mitochondrial content [2]: no effect
mitochondrial ROS [3]: increased mitochondrial ROS
